According to patent US5773421A, “Antifungal fusacandins” (Abbott Laboratories, priority 1995, dated 1998):
In brackets after ≈: the same amount, converted by molar mass. Read-outs that look alike come from different tables or passages of the source.

How the values were obtained:
[1] = tested on: Streptococcus bovis A-5169; test: MIC by agar dilution method; assay type: cell-based; details: Streptococcus equinus, A5169, 20 h
[2] = tested on: Nocardia asteroides ATTC 9970; test: MIC by agar dilution method; assay type: cell-based; details: Nocardia asteroides, ATTC9970, 20 h
[3] = tested on: Streptococcus pyrogenes EES61; test: MIC by agar dilution method; assay type: cell-based; details: Streptococcus, EES61, 20 h
[4] = tested on: Staphylococcus aureus ATTC 6538p; test: MIC by agar dilution method; assay type: cell-based; details: Staphylococcus aureus, ATTC6538P, 20 h
[5] = tested on: Candida tropicalis NRRL-Y-1; test: MIC by agar dilution method; assay type: cell-based; details: Candida tropicalis, NRRLY1, 20 h
Procedure: (§1) Minimal inhibitory concentrations (MICs) were determined by an agar dilution method. The test compounds were serially diluted in MeOH and 0.2 mL portions were mixed with 20 mL of molten, cooled Sabouraud dextrose agar (Difco). Yeast cell inoculum was prepared by growing cultures on Sabouraud dextrose agar for 18 hours at 32° C. and suspending the cells in phosphate buffered saline. Filamentous fungi were grown under the same conditions for 4 days to obtain spores. The inoculum level for all cultures was adjusted to 10^4 cells using a Petroff-Hauser cell counter. The glutarimide antifungal compounds cycloheximide or amphotericin B were used as a control. Inoculated test plates were incubated at 32° C. and examined after 20 hours.

Candida albicans CCH 442 = test: MIC by agar dilution method; assay type: cell-based
Procedure: as §1

[6] = tested on: Aspergillus niger ATCC 164; test: MIC by agar dilution method; assay type: cell-based; details: Aspergillus niger, ATCC164, 20 h
Procedure: as §1

[7] = tested on: Saccharomyces cereviseae GS1-36; test: MIC by agar dilution method; assay type: cell-based; details: Saccharomyces, GS136, 20 h
Procedure: as §1

[8] = tested on: Torulopsis glabrata ATCC 155; test: MIC by agar dilution method; assay type: cell-based; details: Nakaseomyces glabratus, ATCC155, 20 h
Procedure: as §1

[9] = tested on: Candida albicans ATCC 623; test: MIC by agar dilution method; assay type: cell-based; details: Candida albicans, ATCC623, 20 h
Procedure: as §1

[10] = tested on: Candida albicans ATCC 997; test: MIC by agar dilution method; assay type: cell-based; details: Candida albicans, ATCC997, 20 h
Procedure: as §1

(1,3)-β-Glucan Synthase = target: T1, (1,3)-β-Glucan Synthase (Candida albicans, UniProt O13428); test: In vitro inhibition of (1,3)-β-glucan synthase activity, microsomal enzyme preparation; assay type: biochemical; details: C. albicans CCH 442 microsomal enzyme
T1 construct: microsomal enzyme preparation C. albicans CCH 442; endogenous in cells; host or cells: Candida albicans CCH 442, microsomes
Procedure: The assay was conducted in a final volume of 100 μL of 2.0 mM UDP-[^14 C]-Glc (0.625 mCi/mmol), 1 mM EDTA, 8% (v/v) glycerol, 20 μM GTPgS, 0.5% Brij-35(v/v) or 0.8% BSA, 80 mM Tris/HCl, pH 7.75, and microsomal enzyme preparation C. albicans CCH 442 (100 μg of protein). A detailed description of this assay is described by Frost, D., Brandt, K. Capobioanco, and Goldman, R., Microbiology 140: 2239-2246 (1994) which is incorporated herein by reference.

[11] = MIC by broth dilution assay; assay type: cell-based; details: 144 h, Table 6d, no sorbitol, 2 ×10^5 organisms/mL
Procedure: Minimal inhibitory concentrations (MICs) were determined by a broth dilution assay described by Frost, D., Brandt, K., Cugier, D., and Goldman, R. in J. Antibiotics 48: 306-310 (1995) which is incorporated herein by reference. The final concentration of cells was 2 ×10^5 organisms/mL.

[12] = tested on: Candida albicans ATCC 62376; test: MIC by agar dilution method; assay type: cell-based; details: ATCC62376; Table 6c; V Candida albicans ATCC 62376; agar dilution; read-out: MIC V
Procedure: as §1

[13] = tested on: Candida albicans ATCC 38247; test: MIC by agar dilution method; assay type: cell-based; details: ATCC38247; Table 6c; IV Candida albicans ATCC 38247; agar dilution; read-out: MIC IV
Procedure: as §1

[14] = tested on: Candida albicans ATCC 10231; test: MIC by agar dilution method; assay type: cell-based; details: ATCC10231; Table 6c; I Candida albicans ATCC 10231; agar dilution; read-out: MIC I
Procedure: as §1

Candida albicans 579a = test: MIC by agar dilution method; assay type: cell-based; details: Table 6c; II Candida albicans 579a; agar dilution; read-out: MIC II
Procedure: as §1

[15] = CCH442, Table 6c, 3rd value column (head printed II), III Candida albicans CCH 442, agar dilution, read-out: MIC II

T1 sequence (O13428 1-1897): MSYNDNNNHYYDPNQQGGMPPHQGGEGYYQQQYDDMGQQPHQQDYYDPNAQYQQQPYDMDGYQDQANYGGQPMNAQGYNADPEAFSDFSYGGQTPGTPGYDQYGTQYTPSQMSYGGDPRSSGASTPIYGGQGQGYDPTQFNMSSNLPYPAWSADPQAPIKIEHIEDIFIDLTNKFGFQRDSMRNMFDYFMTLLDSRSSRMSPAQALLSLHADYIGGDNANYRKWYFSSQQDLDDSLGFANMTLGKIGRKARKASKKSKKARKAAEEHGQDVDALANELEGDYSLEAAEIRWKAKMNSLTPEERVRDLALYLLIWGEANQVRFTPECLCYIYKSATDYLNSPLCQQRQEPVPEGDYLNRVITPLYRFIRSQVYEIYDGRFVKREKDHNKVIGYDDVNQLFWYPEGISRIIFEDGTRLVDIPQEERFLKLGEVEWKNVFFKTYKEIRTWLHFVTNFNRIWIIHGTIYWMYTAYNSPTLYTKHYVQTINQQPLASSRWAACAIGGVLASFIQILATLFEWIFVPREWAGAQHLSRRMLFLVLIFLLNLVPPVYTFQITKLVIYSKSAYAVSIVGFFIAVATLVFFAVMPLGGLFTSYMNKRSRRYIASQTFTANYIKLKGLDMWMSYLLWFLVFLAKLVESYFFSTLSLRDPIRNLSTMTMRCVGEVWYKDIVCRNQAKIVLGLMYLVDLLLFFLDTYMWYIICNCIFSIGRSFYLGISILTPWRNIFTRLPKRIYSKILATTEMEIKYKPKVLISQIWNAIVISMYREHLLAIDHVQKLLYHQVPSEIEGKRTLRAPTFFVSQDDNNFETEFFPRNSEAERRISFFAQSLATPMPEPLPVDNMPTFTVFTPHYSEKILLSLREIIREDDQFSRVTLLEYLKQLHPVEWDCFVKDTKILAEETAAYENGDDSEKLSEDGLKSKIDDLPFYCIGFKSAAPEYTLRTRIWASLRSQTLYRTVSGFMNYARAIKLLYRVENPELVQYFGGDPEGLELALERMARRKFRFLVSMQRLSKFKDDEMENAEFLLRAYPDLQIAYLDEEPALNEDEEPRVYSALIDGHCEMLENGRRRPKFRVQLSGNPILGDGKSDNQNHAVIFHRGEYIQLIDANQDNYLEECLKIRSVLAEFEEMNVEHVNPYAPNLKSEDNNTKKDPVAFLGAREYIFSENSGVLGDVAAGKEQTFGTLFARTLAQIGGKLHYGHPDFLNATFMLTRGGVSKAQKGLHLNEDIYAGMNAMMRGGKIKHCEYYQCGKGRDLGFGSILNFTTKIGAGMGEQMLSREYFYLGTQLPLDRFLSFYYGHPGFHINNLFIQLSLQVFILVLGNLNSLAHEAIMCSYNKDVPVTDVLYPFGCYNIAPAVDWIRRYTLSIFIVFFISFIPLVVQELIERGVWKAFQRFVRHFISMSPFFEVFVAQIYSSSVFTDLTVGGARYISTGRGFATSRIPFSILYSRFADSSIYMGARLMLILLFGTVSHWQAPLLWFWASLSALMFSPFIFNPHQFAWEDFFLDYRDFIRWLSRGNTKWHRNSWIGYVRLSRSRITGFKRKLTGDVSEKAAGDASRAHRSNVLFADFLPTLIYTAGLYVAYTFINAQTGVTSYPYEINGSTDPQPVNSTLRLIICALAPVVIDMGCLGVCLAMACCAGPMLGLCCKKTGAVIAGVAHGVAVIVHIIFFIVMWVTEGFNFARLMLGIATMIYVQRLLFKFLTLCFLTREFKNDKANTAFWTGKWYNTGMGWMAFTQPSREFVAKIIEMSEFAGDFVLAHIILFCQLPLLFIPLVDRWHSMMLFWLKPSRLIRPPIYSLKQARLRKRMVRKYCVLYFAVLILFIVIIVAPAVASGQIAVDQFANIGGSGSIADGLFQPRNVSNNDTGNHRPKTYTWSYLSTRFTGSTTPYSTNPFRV

Compound | MIC (Candida albicans CCH 442; [15]) [µg/mL] | MIC [12] [µg/mL] | MIC [13] [µg/mL] | MIC [14] [µg/mL] | MIC (Candida albicans 579a) [µg/mL] | further results
C[C@@H]1C[C@@H]([C@H](O)CC2CC(=O)NC(=O)C2)C(=O)[C@@H](C)C1 [Cycloheximide, cycloheximide, reference compound] |  |  |  |  |  | MIC [1]: 25 µg/mL (≈ 88.9 µM); MIC [2]: 1.6 µg/mL (≈ 5.69 µM); MIC [3]: 50 µg/mL (≈ 178 µM); MIC [4]: 0.8 µg/mL (≈ 2.84 µM); MIC [5]: 0.4 µg/mL (≈ 1.42 µM); MIC (Candida albicans CCH 442; Candida albicans, CCH442, 20 h): > 100 µg/mL; MIC [6]: 1.6 µg/mL (≈ 5.69 µM); MIC [7]: < 0.05 µg/mL; MIC [8]: 0.4 µg/mL (≈ 1.42 µM); MIC [9]: > 100 µg/mL; MIC [10]: > 100 µg/mL
CC/C=C/C/C=C\C=C\C(=O)OC[C@H]1O[C@@H](O[C@H]2[C@H](OC(=O)/C=C/C=C/CC(O)/C=C/C=C/CCCCC)[C@@H](O)[C@H](c3c(O)cc(O)cc3CO)O[C@@H]2CO)[C@H](O[C@@H]2O[C@H](CO)[C@H](O)[C@H](O)[C@H]2O)[C@@H](O)[C@H]1O (stereo partly drawn) [Example 9, fusacandin C] |  |  |  |  |  | IC50 ((1,3)-β-Glucan Synthase; 0.5% Brij-35, read-out: IC50 With Brij-35 (converted)): 35 µM; IC50 ((1,3)-β-Glucan Synthase; 0.8% BSA, read-out: IC50 With BSA (converted)): 194 µM; MIC [11]: 1.95 µg/mL (≈ 1.91 µM)
CCCCC/C=C/C=C/[C@@H](O)C/C=C/C=C/C(=O)O[C@@H]1[C@@H](O)[C@H](c2c(O)cc(O)cc2CO)O[C@H](CO)[C@H]1O[C@@H]1O[C@H](COC(=O)c2ccc(CCCC)cc2)[C@H](O)[C@H](O)[C@H]1O[C@@H]1O[C@H](CO)[C@H](O)[C@H](O)[C@H]1O [Example 15] | 3.12 (≈ 3.02 µM) | 1.56 (≈ 1.51 µM) | 1.56 (≈ 1.51 µM) | 3.12 (≈ 3.02 µM) | 0.78 (≈ 0.755 µM) | 
CCCCC/C=C/C=C/[C@@H](O)C/C=C/C=C/C(=O)O[C@@H]1[C@@H](O)[C@H](c2c(O)cc(O)cc2CO)O[C@H](CO)[C@H]1O[C@@H]1O[C@H](COC(=O)Cc2ccc3ccccc3c2)[C@H](O)[C@H](O)[C@H]1O[C@@H]1O[C@H](CO)[C@H](O)[C@H](O)[C@H]1O [Example 22] | 3.12 (≈ 3 µM) | 6.25 (≈ 6 µM) | 12.5 (≈ 12 µM) | 6.25 (≈ 6 µM) | 3.12 (≈ 3 µM) | 

Second part, led by results:

MIC (Candida albicans CCH 442; [15]) [µg/mL] | MIC [12] [µg/mL] | MIC [13] [µg/mL] | MIC [14] [µg/mL] | MIC (Candida albicans 579a) [µg/mL] | Compound | further results
3.12 (≈ 2.92 µM) | 3.12 (≈ 2.92 µM) | 3.12 (≈ 2.92 µM) | 3.12 (≈ 2.92 µM) | 1.56 (≈ 1.46 µM) | CCCCC/C=C/C=C/[C@@H](O)C/C=C/C=C/C(=O)O[C@@H]1[C@@H](O)[C@H](c2c(O)cc(O)cc2CO)O[C@H](CO)[C@H]1O[C@@H]1O[C@H](COC(=O)c2ccc(Oc3ccccc3)cc2)[C@H](O)[C@H](O)[C@H]1O[C@@H]1O[C@H](CO)[C@H](O)[C@H](O)[C@H]1O [Example 31] | 
6.25 (≈ 5.77 µM) | 1.56 (≈ 1.44 µM) | 6.25 (≈ 5.77 µM) | 6.25 (≈ 5.77 µM) | 1.56 (≈ 1.44 µM) | CCCCC/C=C/C=C/[C@@H](O)C/C=C/C=C/C(=O)O[C@@H]1[C@@H](O)[C@H](c2c(O)cc(O)cc2CO)O[C@H](CO)[C@H]1O[C@@H]1O[C@H](COC(=O)c2ccc(-c3ccccc3OC)cc2)[C@H](O)[C@H](O)[C@H]1O[C@@H]1O[C@H](CO)[C@H](O)[C@H](O)[C@H]1O [Example 40] | 
0.39 (≈ 0.371 µM) | 1.56 (≈ 1.48 µM) | 0.78 (≈ 0.742 µM) | 1.56 (≈ 1.48 µM) | 0.39 (≈ 0.371 µM) | CCCCC/C=C/C=C/[C@@H](O)C/C=C/C=C/C(=O)O[C@@H]1[C@@H](O)[C@H](c2c(O)cc(O)cc2CO)O[C@H](CO)[C@H]1O[C@@H]1O[C@H](COC(=O)c2ccc3c(c2)-c2ccccc2-3)[C@H](O)[C@H](O)[C@H]1O[C@@H]1O[C@H](CO)[C@H](O)[C@H](O)[C@H]1O [Example 28] | 
